This is an account of results in PubChem BioAssay (NCI).

“And” between values parts separate entries of the source, which are not always exact repeats. Equal entries are not always repeated.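 Interpolation was linear, between the two tested concentrations surrounding the appropriate level; five concentrations were tested over 48 hours in 96-well plates. GI50 = concentration required for 50% inhibition of growth. TGI marks complete inhibition of growth.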

Some test systems named below: M14 melanoma; UACC-62 melanoma; A549 NSCLC; HCT-116 colon; HOP-92 NSCLC; SNB-19 CNS; U251 CNS; ACHN renal.
What all share (test): DTP human tumour cell line panel, 48 h

Consider `C=C1C(=O)O[C@H]2[C@H]1[C@H](OC(=O)/C(C)=C\C)C[C@]1(CO1)[C@@H]1[C@H](OC(C)=O)C=C(C)[C@]21O`, for which the TGI with M14 melanoma is 54.9 µM; in the experiment with UACC-62 melanoma it was 32.2 µM; in the experiment with A549 NSCLC it was above 100 µM; with HCT-116 colon, 20.3 µM; with HOP-92 NSCLC, 30.3 µM; in the experiment with SNB-19 CNS it was above 100 µM. Moreover, the TGI in the experiment on U251 CNS stood at 52 µM; with ACHN renal, 24.5 µM.
For the molecule `C=CC[Se]C(=O)Cc1c(C)n(C(=O)c2ccc(Cl)cc2)c2ccc(OC)cc12`, the GI50 is 1.64 µM in the experiment on M14 melanoma; 1.74 µM in the experiment on UACC-62 melanoma; 1.62 µM in the experiment with A549 NSCLC; 1.76 µM with HCT-116 colon; 1.85 µM in the experiment on HOP-92 NSCLC; 0.657 µM in the experiment with SNB-19 CNS. Further, the values for the GI50 with U251 CNS and with ACHN renal were 1.1 µM and 1.79 µM, respectively. For the same molecule, the TGI in the experiment on M14 melanoma was found to be 3.16 µM; in the experiment on UACC-62 melanoma it was 3.18 µM; in the experiment with A549 NSCLC, 6.18 µM; in the experiment with HCT-116 colon, 3.57 µM; in the experiment on HOP-92 NSCLC, 4.09 µM; in the experiment with SNB-19 CNS it was 1.99 µM. In addition, the values for the TGI with U251 CNS and in the experiment on ACHN renal were 2.73 µM and 3.25 µM, respectively.
Regarding `O=C1C(Cl)=C(Nc2cccc(C(F)(F)F)c2)C(=O)N1Cc1ccccc1Cl`, the GI50 in the experiment on M14 melanoma was 6.21 µM; in the experiment on UACC-62 melanoma, 3.18 µM; in the experiment with A549 NSCLC, 7.68 µM; with HCT-116 colon it was 1.25 µM; in the experiment with HOP-92 NSCLC it was 8.34 µM; in the experiment on SNB-19 CNS it was 13.1 µM. In addition, the GI50 in the experiment with U251 CNS was 2.1 µM; with ACHN renal, 4.84 µM. For the same molecule, the TGI came out at 19.1 µM in the experiment with M14 melanoma; 13.7 µM in the experiment with UACC-62 melanoma; 27.5 µM in the experiment with A549 NSCLC; 5.27 µM in the experiment on HCT-116 colon; 28.4 µM with HOP-92 NSCLC; 29.4 µM with SNB-19 CNS. In addition, the figures for the TGI in the experiment with U251 CNS and in the experiment with ACHN renal were 13.8 µM and 17.1 µM, respectively.
For `O=C(O)c1ccc(-c2ccc(C(=O)O)cc2I)c(I)c1`, the GI50 in the experiment with M14 melanoma, in the experiment with UACC-62 melanoma, in the experiment on A549 NSCLC, with HCT-116 colon, in the experiment with HOP-92 NSCLC and in the experiment with SNB-19 CNS was above 100 µM in each case. Moreover, the GI50 with U251 CNS and in the experiment with ACHN renal was above 100 µM throughout. The TGI in the experiment with M14 melanoma, in the experiment with UACC-62 melanoma, in the experiment with A549 NSCLC, with HCT-116 colon, with HOP-92 NSCLC and in the experiment on SNB-19 CNS was above 100 µM throughout. Besides, the TGI in the experiment on U251 CNS and in the experiment with ACHN renal was above 100 µM in each case.
For `COc1cc(C2CC(c3ccc4c(c3)OCO4)=NN2C(C)=O)cc(OC)c1OC` (centres undefined), the GI50 in the experiment on M14 melanoma was 0.536 µM; in the experiment with UACC-62 melanoma, 0.493 µM; in the experiment on A549 NSCLC, 2.42 µM; in the experiment on HCT-116 colon, 0.491 µM; in the experiment with HOP-92 NSCLC it was above 100 µM; in the experiment with SNB-19 CNS, 1.91 µM. Moreover, the GI50 with U251 CNS was 0.899 µM; with ACHN renal it was 3.66 µM. Further, the TGI in the experiment with M14 melanoma was above 39.7 µM; in the experiment with UACC-62 melanoma, above 100 µM; in the experiment on A549 NSCLC, above 100 µM; with HCT-116 colon, above 100 µM; in the experiment with HOP-92 NSCLC, above 100 µM; in the experiment on SNB-19 CNS, above 100 µM. Besides, the TGI with U251 CNS and in the experiment with ACHN renal was above 100 µM in each case.
In the case of `Oc1ccc(/C=N/Nc2nc3ccccc3s2)c(O)c1`, the GI50 with M14 melanoma is 1.38 µM; in the experiment on UACC-62 melanoma it was 1.75 µM; with A549 NSCLC, 2.54 µM; in the experiment on HCT-116 colon, 2.78 µM; in the experiment with HOP-92 NSCLC, 4.46 µM; with SNB-19 CNS, 2.8 µM. Besides, the GI50 was 1.72 µM in the experiment on U251 CNS and 1.11 µM in the experiment with ACHN renal. For the same molecule, the TGI was 12.1 µM with M14 melanoma; 4.82 µM with UACC-62 melanoma; 51.9 µM in the experiment on A549 NSCLC; 17.2 µM in the experiment with HCT-116 colon; above 100 µM in the experiment on HOP-92 NSCLC; above 100 µM in the experiment with SNB-19 CNS. Besides, the TGI in the experiment on U251 CNS is above 100 µM; in the experiment on ACHN renal, 9.89 µM.
Consider `c1ccc2cc(OCC3CO3)c(OCC3CO3)cc2c1` (centres undefined), for which the TGI with M14 melanoma stood at 13.3 µM; in the experiment on UACC-62 melanoma, 17.6 µM; in the experiment on A549 NSCLC it was 30 µM; with HCT-116 colon, 3.11 µM; in the experiment with HOP-92 NSCLC, 23.5 µM; in the experiment on SNB-19 CNS, 17.7 µM. Also, the TGI is 13.9 µM in the experiment on U251 CNS and 6.05 µM in the experiment on ACHN renal.
Turning to `COC(=O)[C@@H](Cc1c[nH]c2ccccc12)NC(=O)/C=C/c1ccccc1`, the GI50 was 3.05 µM with M14 melanoma; 3.97 µM in the experiment with UACC-62 melanoma; 3.91 µM in the experiment on A549 NSCLC; 3.36 µM with HCT-116 colon; 0.235 µM in the experiment on HOP-92 NSCLC; 7.31 µM with SNB-19 CNS. The GI50 with U251 CNS is 3.16 µM; in the experiment with ACHN renal it was 4.08 µM. For the same molecule, the TGI is above 100 µM with M14 melanoma; above 100 µM with UACC-62 melanoma; above 100 µM in the experiment with A549 NSCLC; above 100 µM in the experiment with HCT-116 colon; 4.29 µM with HOP-92 NSCLC; above 100 µM in the experiment on SNB-19 CNS. Further, the TGI with U251 CNS is 41.6 µM; in the experiment on ACHN renal it was above 100 µM.
As for `CN(C)CCOc1nc2c3cccnc3cc(-c3cccc(Cl)c3)c2c2ncccc12`, the GI50 with M14 melanoma was 1.76 µM; in the experiment on UACC-62 melanoma, 2.15 µM; in the experiment with A549 NSCLC, 1.39 µM; in the experiment with HCT-116 colon, 1.06 µM; in the experiment with HOP-92 NSCLC it was 2.04 µM; in the experiment with SNB-19 CNS, 1.6 µM. Further, the results for the GI50 with U251 CNS and in the experiment on ACHN renal were 1.56 µM and 0.698 µM, respectively. For the same molecule, the TGI in the experiment on M14 melanoma was determined as 3.48 µM; with UACC-62 melanoma, 4.91 µM; with A549 NSCLC, 2.98 µM; with HCT-116 colon, 2.32 µM; in the experiment on HOP-92 NSCLC, 8.42 µM; in the experiment with SNB-19 CNS, 4.32 µM. The results for the TGI in the experiment on U251 CNS and with ACHN renal were 3.03 µM and 2.45 µM, respectively.
Regarding `CC(C)c1cc(CNc2nc(Nc3cc(C4CC4)[nH]n3)cc(N3CCN(C)CC3)n2)on1`, the TGI in the experiment with M14 melanoma was > 10 µM and 2.51 µM; in the experiment with UACC-62 melanoma, > 10 µM and 2.35 µM; in the experiment with A549 NSCLC it was > 10 µM and 11.8 µM; in the experiment with HCT-116 colon, > 10 µM and 44.6 µM; with HOP-92 NSCLC, 0.821 µM and 0.182 µM; in the experiment on SNB-19 CNS, > 10 µM and 23.3 µM. For the same molecule, the TGI was > 10 µM and 10.3 µM with U251 CNS; > 10 µM and 6.66 µM in the experiment with ACHN renal. The GI50 was 0.16 µM and 0.0273 µM in the experiment on HOP-92 NSCLC; 4.59 µM and 0.471 µM with SNB-19 CNS; 3.49 µM and 0.408 µM in the experiment with U251 CNS.
